Results taken from ChEMBL document CHEMBL1201862, “PubChem BioAssay data set” (2004).
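Tested at 5 concentrations; 48 h exposure; 96-well plates; endpoints linearly interpolated, else capped at highest concentration. Here, GI50 denotes the concentration required for 50% inhibition of growth.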 Calls of active or inactive are those of the source. Rule as the data show it: active = GI50 up to about 1.1 µM and inactive = higher.

Experiments:
Assay in all cases: NCI tumour cell line growth inhibition, 48 h
SF-268 = test system: SF-268
SNB-19 = test system: SNB-19
NCI-H522 = test system: NCI-H522
NCI-H23 = test system: NCI-H23
HOP-92 = test system: HOP-92
NCI-H460 = test system: NCI-H460
SF-295 = test system: SF-295
UACC-62 = test system: UACC-62
UACC-257 = test system: UACC-257
SW-620 = test system: SW-620
OVCAR-3 = test system: OVCAR-3
OVCAR-5 = test system: OVCAR-5
U-251 = test system: U-251
SN12C = test system: SN12C
HOP-62 = test system: HOP-62
DLD-1 = test system: DLD-1
HCT-116 = test system: HCT-116
IGROV-1 = test system: IGROV-1
COLO 205 = test system: COLO 205
HT-29 = test system: HT-29
LXFL 529 = test system: LXFL 529
LOX IMVI = test system: LOX IMVI
RXF 631 = test system: RXF 631
CAKI-1 = test system: CAKI-1
RXF 393 = test system: RXF 393
DMS-114 = test system: DMS-114
CCRF-CEM = test system: CCRF-CEM
M19-MEL = test system: M19-MEL
SNB-75 = test system: SNB-75
HCT-15 = test system: HCT-15
Malme-3M = test system: Malme-3M
K562 = test system: K562
KM-20L2 = test system: KM-20L2
ACHN = test system: ACHN
SNB-78 = test system: SNB-78
A549 = test system: A549
SK-MEL-28 = test system: SK-MEL-28
DMS-273 = test system: DMS-273
HCC 2998 = test system: HCC 2998
SF-539 = test system: SF-539
M14 = test system: M14
EKVX = test system: EKVX
SK-OV-3 = test system: SK-OV-3
OVCAR-4 = test system: OVCAR-4
A498 = test system: A498
HOP-18 = test system: HOP-18
TK-10 = test system: TK-10
SK-MEL-2 = test system: SK-MEL-2
OVCAR-8 = test system: OVCAR-8
MOLT-4 = test system: MOLT-4
SK-MEL-5 = test system: SK-MEL-5
786-0 = test system: 786-0
XF498 = test system: XF498
KM12 = test system: KM12
UO-31 = test system: UO-31
RPMI-8226 = test system: RPMI-8226

Cc1cc(NS(=O)(=O)c2ccc(Nc3c4ccccc4nc4c(C(=O)Nc5ccc(S(=O)(=O)N=C(N)N)cc5)cccc34)cc2)no1
GI50 (SF-268): > 100 µM (inactive) | GI50 (SNB-19): > 100 µM (inactive) | GI50 (NCI-H522): > 100 µM (inactive) | GI50 (NCI-H23): > 100 µM (inactive) | GI50 (HOP-92): > 100 µM (inactive) | GI50 (NCI-H460): > 100 µM (inactive) | GI50 (SF-295): > 100 µM (inactive) | GI50 (UACC-62): > 100 µM (inactive) | GI50 (UACC-257): > 100 µM (inactive) | GI50 (SW-620): > 100 µM (inactive) | GI50 (OVCAR-3): > 100 µM (inactive) | GI50 (OVCAR-5): > 100 µM (inactive) | GI50 (U-251): > 100 µM (inactive) | GI50 (SN12C): > 100 µM (inactive) | GI50 (HOP-62): > 100 µM (inactive) | GI50 (DLD-1): > 100 µM (inactive) | GI50 (HCT-116): > 100 µM (inactive) | GI50 (IGROV-1): > 100 µM (inactive) | GI50 (COLO 205): > 100 µM (inactive) | GI50 (HT-29): > 100 µM (inactive) | GI50 (LXFL 529): > 100 µM (inactive) | GI50 (LOX IMVI): > 100 µM (inactive) | GI50 (RXF 631): > 100 µM (inactive) | GI50 (CAKI-1): > 100 µM (inactive) | GI50 (RXF 393): > 100 µM (inactive) | GI50 (DMS-114): > 100 µM (inactive) | GI50 (CCRF-CEM): > 100 µM (inactive) | GI50 (M19-MEL): > 100 µM (inactive) | GI50 (SNB-75): > 100 µM (inactive) | GI50 (HCT-15): > 100 µM | GI50 (Malme-3M): > 100 µM (inactive) | GI50 (K562): > 100 µM (inactive) | GI50 (KM-20L2): > 100 µM (inactive) | GI50 (ACHN): > 100 µM (inactive) | GI50 (SNB-78): > 100 µM (inactive) | GI50 (A549): > 100 µM (inactive) | GI50 (SK-MEL-28): > 100 µM (inactive) | GI50 (DMS-273): > 100 µM (inactive) | GI50 (HCC 2998): > 100 µM (inactive) | GI50 (SF-539): > 100 µM (inactive) | GI50 (M14): > 100 µM (inactive) | GI50 (EKVX): > 100 µM (inactive) | GI50 (SK-OV-3): > 100 µM (inactive) | GI50 (OVCAR-4): > 100 µM (inactive) | GI50 (A498): > 100 µM (inactive) | GI50 (HOP-18): > 100 µM (inactive) | GI50 (TK-10): > 100 µM (inactive) | GI50 (SK-MEL-2): > 100 µM (inactive) | GI50 (OVCAR-8): > 100 µM (inactive) | GI50 (MOLT-4): > 100 µM (inactive) | GI50 (SK-MEL-5): > 100 µM (inactive) | GI50 (786-0): > 100 µM (inactive) | GI50 (XF498): > 100 µM (inactive) | GI50 (KM12): > 100 µM (inactive) | GI50 (UO-31): > 100 µM (inactive) | GI50 (RPMI-8226): > 100 µM (inactive)
